Measurements taken from a melting point compilation (Tetko et al.; mined from patent text by program, amines drawn as free bases though some values may be those of a salt).
Residues, ends and D or L forms follow the SMILES beside them. *: point of attachment. Tos = Cc1ccc(S(=O)(=O)*)cc1; Cam = NC(=O)C*

| SMILES | melting point |
| --- | --- |
| COc1nc2c(O)cccc2n1C | 226 to 229 °C |
| O=C(O)C(=O)Nc1coc2ccc(Cl)cc2c1=O | 213 to 215 °C |
| COCOc1c(Br)cccc1-c1ccc2c(c1)C(C)(C)CCC2(C)C | 74 °C |
| C1CC(C23CSC(SC2)SC3)C1 | 112 to 114 °C |
| Cc1csc(C2=CCN(CCCC(=O)c3ccc(F)cc3)CC2)n1 | 81 to 82 °C |
| CCc1ccc(C#CC(C)N(O)C(N)=O)cc1 (stereo unspecified) | 142 to 144 °C |
| OC(c1ccccc1)c1ccccc1CNC(=S)NCCc1ccccc1 (stereo unspecified) | 117 to 119 °C |
| Cc1occc1COC(C)CN(O)C(N)=O (stereo unspecified) | 101 to 102 °C |
| OCCN(Cc1ccccc1)CC1(O)CCN(CCCc2c[nH]c3ccc(-n4cnnc4)cc23)CC1 | 75 to 78 °C |
| CCOC(=O)c1cnc2c([N+](=O)[O-])cccc2c1N(C)C | 76 to 77 °C |
| COC(=O)N(CC(=O)O)C(=O)c1c(OCC(F)(F)F)ccc2c(C(F)(F)F)c(OC)ccc12 | 186 to 187 °C |
| C#CC1(O)C(C)CC2C3CCC4=CC(=O)CCC4(C)C3=CCC21C (stereo unspecified) | 213 to 218 °C |
| CCC1(C)CCCC(C)(C)N1OC(C)(C)C#N (stereo unspecified) | 41 to 52 °C |
| Nc1nc(NCc2cccc(I)c2)c2ncn(C3OC(CO)C(O)C3O)c2n1 (stereo unspecified) | 152 to 154 °C |
| COCc1ncnc(Cl)c1C | 37 to 38 °C |
| O=c1n(CCCF)nnn1-c1ccc([N+](=O)[O-])cc1F | 86 to 89 °C |
| N#CCCCCn1c(=O)sc2c(=O)[nH]c(N)nc21 | 240 to 243 °C |
| COC1(c2cc(F)cc(Sc3ccc(C(F)(F)c4ccc(F)cc4)cc3)c2)CCOCC1 | 54 to 57 °C |
| CC(C)(C)OC(=O)NC(C)(COCc1ccccc1)C(=O)O (stereo unspecified) | 112 to 114 °C |
| O=C(OCc1ccc(C(F)(F)F)cc1)N1CCN(CC2Cn3cc([N+](=O)[O-])nc3O2)CC1 (stereo unspecified) | 120 to 122 °C |
| c1ccc(CCc2[nH]ncc2-c2ccncc2)cc1 | 125 to 131 °C |
| C[C@](Cc1c[nH]c2ccccc12)(NC(=O)O)C(=O)NCCC1CCCCC1 | 79 to 81 °C |

| SMILES | melting point |
| --- | --- |
| Cc1cccc(N2CCN(CCc3c(C)nc4c(C)cccn4c3=O)CC2)c1 | 106 °C |
| Cc1c(F)c(N2CCC(n3ccnn3)CC2)c(F)c2c1c(=O)c(C(=O)O)cn2C1CC1 | 261 to 263 °C |
| N#CC(c1ccc(Cl)c(Cl)c1)c1c(Cl)cc([N+](=O)[O-])cc1Cl (stereo unspecified) | 171 to 172 °C |
| Nn1ccnc1-c1ccc(Cl)cc1 | 210 °C |
| CN(C)CCn1c2ccccc2c(=NN=C2NCCS2)c2ccccc21 | 192 to 194 °C |
| Nc1cc(N2CCc3ccccc3C2)ccn1 | 160 to 161 °C |
| CN(C(=O)OC(C)(C)C)[C@H]1CC[C@H](/C=C/CCl)CC1 | 42.5 to 43.9 °C |
| COc1cccc2c(O)c(C)c(C)nc12 | > 290 °C |
| Cn1cnc(S(=O)(=O)NC(CN2CCOCC2)CN2CCOCC2)c1 | 191 to 192 °C |
| COc1ccc2cc(-c3cncn3C)cc(C)c2n1 | 160 to 162 °C |
| CCOC(=O)c1c(N(C(C)=O)C(C)=O)c2cccnc2n(CC)c1=O | 133 to 135 °C |
| Nc1nc2c(s1)CC(CNC(=O)[C@@H]1CCCN1C(=O)[C@@H](CC1CCCCC1)NS(=O)(=O)Cc1ccccc1)CC2 (stereo partly specified) | 203 to 205 °C |
| OC[C@]1(c2ccccc2)O[C@H]1c1ccccc1 | 88 to 89 °C |
| COC(=O)Cc1ccc(OCCN)c(OC)c1 | 77 to 80 °C |
| CCOC(=O)C1=C(C)Nc2n[nH]cc2C1c1cccc2nonc12 (stereo unspecified) | 228 °C |
| CCOCc1nnc2c(C(F)(F)F)c(Cl)ccn12 | 104 °C |
| O=C(NC(=O)N(SN1CCOCC1)c1ccc(Oc2ccc(C(F)(F)F)cc2Cl)cc1F)c1c(F)cccc1F | 77 to 80 °C |
| CCCc1nc2c(N)nc3ccccc3c2n1CCC(=O)N1CCOCC1 | 172 to 173 °C |
| Cc1ccccc1Cn1c(=O)[nH]c2cc(Cl)cc(Cl)c2c1=O | 274 to 276 °C |
| CC1(COCc2ccccc2)COC(c2ccc([N+](=O)[O-])cc2)=N1 (stereo unspecified) | 65 to 66 °C |
| O=C1NCCN1c1ccc(S(=O)(=O)Nc2cccc(Cl)c2)cc1 | 180 to 182 °C |
| CC(C)(C)c1cc(-c2nc(Cl)nc(Cl)n2)cc(C(C)(C)C)c1O | 178 to 179 °C |

| SMILES | melting point |
| --- | --- |
| C=CCc1cc(C=CC(=O)O)ccc1OC(C)=O | 143 to 144 °C |
| CCOc1ccc(NC(=O)C(C)(C)O)cc1 | 146 to 148 °C |
| Cc1ccnc2c1C(=O)c1ccccc1-2 | 130 to 131 °C |
| COC(=O)c1cc(N2CCOCC2)nc(Cl)n1 | 135 to 138 °C |
| Fc1cccc2oc(CCC#Cc3ccccn3)nc12 | 89 to 89.5 °C |
| CSc1sc(C(=O)N2CCCCCC2)c2c1-c1oncc1C(C)(C)C2 | 99 to 101 °C |
| CCCCOc1cc2ncnc(Nc3cccc(CC)c3)c2cc1OCCOC | 90 to 92 °C |
| C[C@@]12CCCN1[C@@H](C(Cl)(Cl)Cl)OC2=O | 55 to 57 °C |
| Nc1c(Cl)cc(C(O)CNCCCCCCOCCc2ccccc2)cc1Cl (stereo unspecified) | 60 to 63 °C |
| O=C(CCCO)NCc1cccc(Nc2n[nH]c3ncnc(Nc4cccc(Cl)c4)c23)c1 | 182 to 184 °C |
| Cn1c2ccccc2c(=O)n2nc(C(=O)O)cc12 | 265 °C |
| Nc1ncnc2c1c(-c1ccc(Oc3cccc(CN4CCOCC4)c3)cc1)cn2C1CCOC1 (stereo unspecified) | 83 to 85 °C |
| CC1CC(n2cncc2C(=O)O)c2ccccc21 (stereo unspecified) | 209 °C |
| CC(C)NC(=O)OCC(=O)c1cccc(Br)c1 | 125 to 129 °C |
| CCCCC(O)(Cn1ccnc1)c1ccc(Cl)cc1Cl (stereo unspecified) | 78 to 80 °C |
| CCOc1cc2c(cc1OCC)[C@@H]1CCCC[C@@H]1N=C2c1ccc(O)nc1 (racemic) | 211 to 213 °C |
| CCOC(=O)c1nn(-c2ccc(F)cc2)c2c1CCCC2 | 100 to 101 °C |
| C[C@H]1C=CC(Sc2ccccc2)=CC[C@H]1O | 54 to 56 °C |
| COCc1ccc(CC(C)NCC(O)c2ccc(O)c(CO)c2)cc1 (stereo unspecified) | 81 to 92 °C |
| O=[N+]([O-])c1ccc(OCc2ccc(C(F)(F)F)cc2)cc1 | 80.5 to 81.5 °C |
| CS(=O)(=O)Oc1cc([N+](=O)[O-])c(F)cc1Cl | 64 to 65.5 °C |

The next lines start with the values.

| melting point | SMILES |
| --- | --- |
| 103 to 105 °C | CC(C)(C)C(O)c1ccc(C(=O)c2ccccc2)cc1 (stereo unspecified) |
| 224 to 230 °C | O=c1[nH]c(=O)n(Cc2ccc(OCCc3coc(-c4ccccc4)n3)cc2)[nH]1 |
| 190 to 191 °C | CCc1nc(CCc2ccc(NC(=O)/C=C/c3cnn(CC)c3-c3ccc(F)cc3)cc2)cs1 |
| 102 to 106 °C | COc1ccc(-c2ccccc2)cc1[N+]([O-])=NC(=O)OC(C)C |
| 188 to 190 °C | CC(=O)Nc1nc(-c2cccc3ccccc23)co1 |
| 85 to 87 °C | CCNC(=O)N1C(c2ccccc2C(=O)OCC)=NC(=O)C1(C)C(C)C (stereo unspecified) |
| 195 to 196 °C | Cc1ccc(S(=O)(=O)N2CCC[C@H]2C(=O)N[C@@H](Cc2ccc(OCC(N)=O)cc2)C(=O)O)cc1 (Tos-Pro-Tyr(Cam)-OH) |
| 160 °C | CC(C)c1ccc(S(=O)(=O)Nc2cnc(Cl)cc2I)cc1 |
| 155 to 160 °C | CC(Nc1cc(Cl)nc(SCC(=O)O)n1)c1ccc(Cl)cc1 (stereo unspecified) |
| 210 to 212 °C | CCn1c(COc2ccc(CC3SC(=O)NC3=O)cc2)nc2cccnc21 (stereo unspecified) |
| 188 to 190 °C | CC1=C(C#N)C(c2cccc3ncc(Cc4ccccc4)cc23)C(C(=O)OC(C)C)=C(C)N1 (stereo unspecified) |
| 93 to 95 °C | O=C(c1ccc(Cl)cc1)c1noc(CS(=O)c2ccccc2)n1 (stereo unspecified) |
| 202 to 205 °C | COc1ccc(NC(=O)c2sccc2S(=O)(=O)Nc2onc(C)c2Br)cc1 |
| 210 to 212 °C | O=C(OC1=CC(O)=CC(C=Cc2ccc(O)cc2)(C(=O)c2cc(O)c(O)c(O)c2)C1)c1cc(O)c(O)c(O)c1 (stereo unspecified) |
| 163 to 164 °C | Cc1ccc(-c2ccccc2C(=O)Nc2ccc(C(=O)N3C[C@@H]4C[C@@H](O)CN4c4ccccc43)cc2)cc1 |
| 269 to 270 °C | Cc1ccc(C(=O)C2=C(O)C(=O)N(c3ccc(C(C)C)nn3)C2c2ccc(C(C)C)cc2)cc1 (stereo unspecified) |
| 111 to 114 °C | CCN(CC)CCn1cc(C(=O)NCc2ccc(Cl)cc2)c(=O)c2cc(CCCO)sc21 |
| 220 to 222 °C | NC(=O)c1ccccc1NC(=O)c1cccnc1 |

| melting point | SMILES |
| --- | --- |
| 192 to 195 °C | Clc1ccc(Nc2ncc(Sc3ccncc3)c3ccccc23)cc1 |
| 132 to 135 °C | COc1ccc(C(Cc2ccccc2)=NO)cc1 |
| 135 to 137 °C | O=C(c1ccc(F)c(F)c1)N1CCC[C@H](c2nc(-c3ccccn3)no2)C1 |
| 103 to 104 °C | CCN1c2ncc(CCc3cccc(C)c3)cc2C(=O)N(C)c2cccnc21 |
| 140 to 142 °C | COC(=O)c1cnc(CNC(=O)c2ccccc2)c2ccccc12 |
| 227 to 228 °C | Cc1ccc(C2CCN(C(=O)Nc3ccc4cc(CN5CCCCC5)ccc4c3)CC2)cc1 |
| 154 to 155 °C | Cn1cc(-c2ccccc2)c(=O)c(-c2ccc(Cl)c(C(F)(F)F)c2)c1 |
| 150 to 165 °C | Nc1cccc(-c2ccc(C3CCN(Cc4ccc5c(c4)OCO5)CC3)cc2)n1 |
| 180 to 182 °C | COc1ccc(-c2nnc3c4ccccc4c(OCCCCO)nn23)cc1 |
| 122 to 123 °C | Cc1cc(N(C)Cc2oc(-c3ccc(C(F)(F)F)cc3)nc2C)cc(C)c1OCC(=O)O |
| 101 to 123 °C | CCc1nc2cc(NS(C)(=O)=O)c(Cl)cc2n1-c1ccc(CCNC(=O)NS(=O)(=O)c2ccc(C)cc2)cc1 |
| 221 °C | Cc1ccc(N2C(=O)C(O)=C(C(=O)c3ccc(C(C)C)cc3)C2c2ccc(OC(F)(F)F)cc2)nn1 (stereo unspecified) |
| 188 to 189 °C | CCOC(=O)c1cc(N)nc(SCc2ccc3ccccc3c2)n1 |
| 220 to 224 °C | COc1cc(C2CCN(CCO)CC2)ccc1Nc1ncc2ccc(-c3cccc(S(=O)(=O)NC(C)(C)C)c3)n2n1 |
| 110 to 112 °C | CC1CC(=O)NN=C1c1ccc(NC(=O)C(C)OS(C)(=O)=O)cc1 (stereo unspecified) |
| 156 to 157 °C | C=C(C(=O)c1ccc(C(=O)O)cc1)c1cc(OC)c(OC)c(-c2cccs2)c1 |
| 316 °C | N#Cc1c(N2CCN(C(=O)c3cccs3)CC2)c2cc(Cl)cnc2n(CC(=O)c2ccccc2)c1=O |
| 230 to 233 °C | COc1ccc(-n2c(-c3cccnc3)nc(SC)c(C#N)c2=O)cc1 |
